In patent US7271261B2, “Substituted benzimidazoles and imidazo-[4,5]-pyridines” (Ortho-McNeil Pharmaceutical, Inc., priority 2001, dated 2007):

How the values were obtained:
spleen B cells = experiment: Radiation-induced apoptosis in isolated primary cells (Annexin V staining); format: cell-based, C57/BL6 mice; conditions: isolated C57/BL6 spleen cells, 0.5-1 Gy 137Cs γ-radiation, Annexin V/propidium iodide FACS 6-24 h after irradiation
Experimental: Determination of the Effect of Cds1 Inhibitory Compounds on Radiation-Induced Apoptosis in Isolated Primary Cells
Spleen cells were isolated from C57/BL6 mice as follows: Spleens were disrupted by grinding between two frosted glass slides, and cells were passed through a cell strainer. Erythrocytes were lysed by incubation in ammonium chloride solution followed by careful washing of cells in isotonic medium. The spleen cells were plated in 60 mm petri dishes at 5×10^6 cells/mL in RPMI medium containing 10% fetal calf serum and Cds1 inhibitor. […] Determination of apoptotic cells by Annexin V staining was performed using the Annexin V-FITC Apoptosis Detection Kit™ (Cat# PF032 Oncogene Research Products) according to the manufacturer's instructions. Briefly, 6-24 h after irradiation, the cells were washed with buffered isotonic salt solution and suspended at 1×10^6 cells/mL in binding buffer (10 mM Hepes pH 7.4, 150 mM NaCl, 2.5 mM CaCl2, 1 mM MgCl2, 4% bovine serum albumin) containing 80 ng/mL Annexin V labelled with FITC and 0.4 μg/mL anti-B220 antibody labelled with allophycocyanin. The cells were then pelleted and resuspended in binding buffer containing 0.6 μg/mL propidium iodide. The stained cells were analyzed on a FACS machine (Fluorescence Activated Cell Sorter™, Becton Dickinson). […] Fraction of non-apoptotic B-cells or total cells were determined separately based on staining with the B220 antibody mentioned above.

[1] = test system: cells from an established tumor line; experiment: Effect of Cds1 inhibitory compounds on tumor cell line clonogenic survival; format: cell-based; conditions: compound exposure 12 to 48 h with DNA-damaging second agent; compared to control group having no compound
Experimental: Typically 3 to 300 cells from an established tumor line were plated per cm^2 in petri dishes in the appropriate growth medium at 37° C. Cells were exposed to compounds dissolved in the growth medium from appropriately formulated stock solutions for times ranging from 12 to 48 h. During the course of compound exposure the cells were treated with a second agent with DNA-damaging capabilities, such as ionizing radiation or certain chemotherapeutic compounds. After this treatment regimen cells were incubated in growth medium containing no compound for a period of 7 to 14 days. At that time the cells were fixed with methanol and stained with 0.25% crystal violet. The number of colonies of cells exceeding 50 cells was determined for each treatment, and this number was used to calculate the effect of compounds on the survival of cells.

[2] = test system: tumor cells from an established tumor cell line; experiment: Effect of Cds1 inhibitors on tumor growth in murine xenograft models; format: in vivo; conditions: xenograft in athymic nu/nu mice, compound plus local irradiation
Experimental: Effect of Cds1 Inhibitors on Tumor Growth in Murine Xenograft Models
One×10^6 to ten×10^6 tumor cells from an established tumor cell line are injected in the hind limbs of athymic nu/nu mice. Tumors are allowed to grow until they reach 30-100 mm^3. At that time mice are randomized into different treatment groups, and compound or vehicle is administered by injection or oral gavage. […] After this treatment tumor growth rate is followed by measurement of tumor size twice weekly in three orthogonal directions, which is used to calculate the tumor volume.

spleen cells = experiment: Radiation-induced apoptosis in splenocytes in vivo; conditions: female C57/BL mice, 4Gy whole-animal γ-radiation, compared to animals dosed with vehicle alone
Experimental: Determination of the Effect of Cds1 Inhibitory Compounds on Radiation-Induced Apoptosis in Splenocytes in vivo
Female C57/BL mice, 6-8 weeks of age, were dosed by oral gavage or by injection with Cds1 inhibitory compound before and at regular intervals after radiation exposure. One to three hours after first compound dose, the animals were irradiated with γ-rays administered to the whole animal at a dose between 0.5 and 4 Gy. At times between 4 and 24 h after irradiation, the animals were sacrificed, and the tissues of interest were excised. […] Briefly, cells or tissues are fixed with formaldehyde and permeabilized with ethanol, and DNA ends are then labelled by attaching nucleotide derivatives such as BrdUTP using the enzyme terminal deoxynucleotidyl transferase. DNA ends can then be detected by incubating the cells or tissues with fluorescently-labelled antibodies reactive with BrdU. Quantification can be done by laser scanning cytometry, by visual microscopical examination or by FACS.

NC(=O)c1ccc2[nH]c(-c3ccc(Sc4ccc(F)c(Cl)c4)cc3)nc2c1 [Example 38, 2-[4-(3-Chloro-4-fluoro-phenylsulfanyl)-phenyl]-1H-benzoimidazole-5-carboxylic acid amide]
protection of spleen B cells from radiation-induced apoptosis (spleen B cells): protected spleen B cells from radiation-induced apoptosis

NC(=O)c1ccc2[nH]c(-c3ccc(Oc4ccc(I)cc4)cc3)nc2c1 [Example 97, 2-[4-(4-Iodo-phenoxy)-phenyl]-1H-benzoimidazole-5-carboxylic acid amide]
protection of spleen B cells from radiation-induced apoptosis (spleen B cells): protected spleen B cells from radiation-induced apoptosis

NC(=O)c1ccc2[nH]c(-c3ccc(Sc4ccc(Cl)cc4)nc3)nc2c1 [Example 42, 2-[6-(4-Chloro-phenylsulfanyl)-pyridin-3-yl]-1H-benzoimidazole-5-carboxylic acid amide]
protection of spleen B cells from radiation-induced apoptosis (spleen B cells): protected spleen B cells from radiation-induced apoptosis

NC(=O)c1ccc2[nH]c(-c3ccc(Oc4ccc5c(c4)OCO5)cc3)nc2c1 [Example 84, 2-[4-(Benzo[1,3]dioxol-5-yloxy)-phenyl]-1H-benzoimidazole-5-carboxylic acid amide]
protection of spleen B cells from radiation-induced apoptosis (spleen B cells): protected spleen B cells from radiation-induced apoptosis

NC(=O)c1ccc2[nH]c(-c3ccc(Oc4ccc(Cl)cc4)cc3)nc2c1 [Example 1, 2-[4-(4-Chloro-phenoxy)-phenyl]-1H-benzoimidazole-5-carboxylic acid amide]
number of colonies of cells (clonogenic survival) [1]: decrease in the number of colonies of cells
tumor growth rate (tumor volume) [2]: inconclusive
protection of spleen B cells from radiation-induced apoptosis (spleen B cells): protected spleen B cells from radiation-induced apoptosis
protection of spleen cells from apoptosis (spleen cells): protection of spleen cells from apoptosis was observed

NC(=O)c1ccc2[nH]c(-c3ccc(Oc4ccc5ccccc5c4)cc3)nc2c1 [Example 9, 2-[4-(2-Naphthyloxy)-phenyl]-1H-benzoimidazole-5-carboxylic acid amide]
protection of spleen B cells from radiation-induced apoptosis (spleen B cells): protected spleen B cells from radiation-induced apoptosis

NC(=O)c1ccc2[nH]c(-c3ccc(Sc4ccc(O)cc4)cc3)nc2c1 [Example 87, 2-[4-(4-Hydroxy-phenylsulfanyl)-phenyl]-1H-benzoimidazole-5-carboxylic acid amide]
protection of spleen B cells from radiation-induced apoptosis (spleen B cells): protected spleen B cells from radiation-induced apoptosis

NC(=O)c1ccc2[nH]c(-c3ccc(Oc4ccc(Br)cc4)cc3)nc2c1 [Example 11, 2-[4-(4-Bromo-phenoxy)-phenyl]-1H-benzoimidazole-5-carboxylic acid amide]
protection of spleen B cells from radiation-induced apoptosis (spleen B cells): protected spleen B cells from radiation-induced apoptosis

NS(=O)(=O)c1ccc2[nH]c(-c3ccc(Oc4ccc(Cl)cc4)cc3)nc2c1 [Example 94, 2-[4-(4-Chloro-phenoxy)-phenyl]-1H-benzoimidazole-5-sulfonic acid amide]
protection of spleen B cells from radiation-induced apoptosis (spleen B cells): protected spleen B cells from radiation-induced apoptosis

Cc1ccc(Sc2ccc(-c3nc4cc(C(N)=O)ccc4[nH]3)cn2)cc1 [Example 43, 2-[6-(4-Methyl-phenylsulfanyl)-pyridin-3-yl]-1H-benzoimidazole-5-carboxylic acid amide]
protection of spleen B cells from radiation-induced apoptosis (spleen B cells): protected spleen B cells from radiation-induced apoptosis

NC(=O)c1ccc2[nH]c(-c3ccc(Oc4ccc(Br)c(O)c4)cc3)nc2c1 [Example 88, 2-[4-(4-Bromo-3-hydroxy-phenoxy)-phenyl]-1H-benzoimidazole-5-carboxylic acid amide]
protection of spleen B cells from radiation-induced apoptosis (spleen B cells): protected spleen B cells from radiation-induced apoptosis
